# Measured values as given in patent US9676771B2, “Compounds for inhibiting drug-resistant strains of HIV-1 integrase” (priority 2013, dated 2017).
# Where two headings read alike, the source gives them in different places.
# Tests used:
# HIV-1 integrase = HIV-1 integrase (Human immunodeficiency virus type 1 group M subtype B, UniProt P12497); assay: biochemical; assay type: biochemical
# Procedure, shortened: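 Compounds or DMSO added to 20 nM DNA and 400 nM integrase in 50 mM MOPS pH 7.2, 7.5 mM MgCl2, 14 mM 2-mercaptoethanol; 2 h at 37° C, quenched with formamide/SDS loading buffer. Products resolved on gels, imaged and quantified by densitometry.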
# in vitro = assay type: cell-based, human; settings: human, 50% reduction in the level of ATP in HOS cells
# Procedure, shortened: (§1)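 Cells exposed to compounds over a concentration range for 48 hrs at 37° C. Viability read as cellular ATP by luciferase (ATPlite) luminescence after lysis, normalised to untreated cells; CC50 derived by regression fit.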
# [1] = test system: HIV-1 constructs containing wild-type IN; assay: microbe, parasite or virus in culture; assay type: cell-based; settings: for Si (selectivity index): ratio of CC50 to EC50
# [2] = test system: HIV-1 constructs containing mutant IN G140S-Q148H; assay: microbe, parasite or virus in culture; assay type: cell-based; settings: Human immunodeficiency virus 1
# Procedure, shortened: (§2)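 Single-round infectivity assay using luciferase-reporter pNLNgoMIVR−ΔEnv.LUC virus carrying site-directed integrase mutants, produced in 293 cells. Activity normalized to infectivity without compound; EC50 from regression fit.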
# [3] = test system: HIV-1 constructs containing mutant IN N155H; assay: microbe, parasite or virus in culture; assay type: cell-based; settings: Human immunodeficiency virus 1
# Procedure, shortened: as §2
# [4] = test system: HIV-1 constructs containing mutant IN Y143R; assay: microbe, parasite or virus in culture; assay type: cell-based; settings: Human immunodeficiency virus 1
# Procedure, shortened: as §2
# [5] = test system: HIV-1 constructs containing mutant IN G118R; assay: microbe, parasite or virus in culture; assay type: cell-based; settings: Human immunodeficiency virus 1
# Protocol: (§3) Single-Round HIV-1 Infectivity Assay.
# (§4) Human embryonyl kidney cell culture cell line 293 was acquired from the American type Culture Collection (ATCC).
# (§5) […]. […] The virus-containing supernatants were then harvested, clarified by low-speed centrifugation, filtrated, and diluted for preparation in infection assays. […] After compound incorporation and activation in the cell, 100 μL of virus-stock diluted to achieve a maximum luciferase signal between 0.2 and 1.5 RLUs was added to each well and further incubated at 37° C. for 48 hrs. […] Activity was normalized to infectivity in the absence of target compounds. KaleidaGraph (Synergy Software, Reading, Pa.) was used to perform regression analysis on the data. EC50 values were determined from the fit model.
# (§6) pNLNgoMIVR^−ΔEnv.LUC has been described previously (Zhao et al. 2008). The integrase codon reading frame was removed from pNLNgoMIVR^−ΔEnv LUC (between KpnI and SalI sites) and placed between the KpnI and SalI sites of pBluescript II KS+. Using that construct as the wild-type template, we prepared the following HIV-1 Integrase-resistant mutants via the QuikChange II XL (Stratagene, La Jolla, Calif.) site-directed mutagenesis protocol: H51Y, T66I, E92Q, G118R, Y143R, Q148H, Q148K, N155H, R263K, G140S+Q148H, G140A+Q148K, E138K+Q148K, and H51Y+R263K. The following sense with cognate antisense (not shown) oligonucleotides (Integrated DNA Technologies, Coralville, Iowa) were used in the mutagenesis: H51Y, 5′-[…]-3; T66I, 5′-[…]-3′; E92Q, 5′-[…]-3′; G118R, 5′-[…]-3′; E138K, 5′-[…]-3; G140A, 5′-[…]-3; G140S, 5′-[…]-3′; Y143R, 5′-[…]-3′; Q148H, 5′-[…]-3′; Q148K, 5′-[…]-3; N155H, 5′-[…]-3′; R263K 5′-[…]-3′. The double mutation G140S+Q148H was constructed by using the previously generated Q148H mutant and the appropriate oligonucleotide for the 2nd mutation, G140S. The double mutation G140A+Q148K was made by using the Q148K mutant and the appropriate oligonucleotide for the 2nd mutation, G140A. The double mutation E138K+Q148K was made by using the Q148K mutant and the appropriate oligonucleotide for the 2nd mutation, E138K. The double mutation H51Y+R263K was constructed by using the previously generated H51Y mutant and the appropriate oligonucleotides for the 2nd mutation, R263K. The DNA sequence of each construct was verified independently by DNA sequence determination. The mutant integrase coding sequences from pBluescript II KS+ were then subcloned into pNLNgoMIVR^−ΔEnv LUC (between the KpnI and SalI sites) to produce the full-length mutant HIV-1 Integrase constructs. These DNA sequences were additionally checked independently by DNA sequence determination.
# [6] = test system: HIV-1 constructs containing mutant IN R263K; assay: Single-round HIV-1 infectivity assay, IN mutant R263K; assay type: cell-based; settings: Human immunodeficiency virus 1
# Protocol: as §3, §4, §5, §6
# [7] = test system: HIV-1 constructs containing mutant IN E92Q; assay: Single-round HIV-1 infectivity assay, IN mutant E92Q; assay type: cell-based; settings: Human immunodeficiency virus 1; Table 8; read-out: EC50 (nM, IN mutants) E92Q
# Protocol: as §3, §4, §5, §6
# [8] = test system: HIV-1 constructs containing mutant IN T66I; assay: Single-round HIV-1 infectivity assay, IN mutant T66I; assay type: cell-based; settings: Human immunodeficiency virus 1; Table 8; read-out: EC50 (nM, IN mutants) T66I
# Protocol: as §3, §4, §5, §6
# [9] = test system: HIV-1 constructs containing mutant IN H51Y; assay: Single-round HIV-1 infectivity assay, IN mutant H51Y; assay type: cell-based; settings: Human immunodeficiency virus 1; Table 8; read-out: EC50 (nM, IN mutants) H51Y
# Protocol: as §3, §4, §5, §6
# [10] = test system: HIV-1 constructs containing mutant IN H51Y/R263K; assay: Single-round HIV-1 infectivity assay, IN double mutant H51Y/R263K; assay type: cell-based; settings: Human immunodeficiency virus 1; Table 8; read-out: EC50 (nM, IN mutants) H51Y/R263K
# Protocol: as §3, §4, §5, §6
# HIV-1 WT IN = assay: High growth serum assays in cells (WT); assay type: cell-based
# [11] = test system: human osteosarcoma (HOS) cells; assay: in vitro; assay type: cell-based; settings: Table 3; 50% reduction in the level of ATP in HOS cells
# Procedure, shortened: as §1
# [12] = Human immunodeficiency virus 1, Table 8, WT IN, read-out: EC50 (nM, WT)
# [13] = Table 8, read-out: EC50 (nM, IN mutants) G140S/Q148H
# [14] = Table 8, read-out: EC50 (nM, IN mutants) N155H
# [15] = Table 8, read-out: EC50 (nM, IN mutants) Y143R
# [16] = Table 8, read-out: EC50 (nM, IN mutants) G118R
# [17] = Table 8, read-out: EC50 (nM, IN mutants) R263K
# [18] = Table 4, strand transfer, read-out: IC50 (Strand Transfer)
# [19] = Human immunodeficiency virus 1, Table 3, WT IN, read-out: EC50 (nM, WT)
# [20] = Table 6, read-out: EC50 (nM, IN Mutants) G118R
# [21] = Table 6, read-out: EC50 (nM, IN Mutants) R263K
# [22] = Table 4, 3′-processing, read-out: IC50 (3^+-Processing)
# [23] = Table 3, G140S-Q148H double mutant, read-out: EC50 (nM, IN Mutants) SH
# [24] = Table 3, read-out: EC50 (nM, IN Mutants) N155H
# [25] = Table 3, read-out: EC50 (nM, IN Mutants) Y143R
SMILES,CC50 (in vitro; Table 8) [µM],"EC50 [1, 12] [nM]","EC50 [2, 13] [nM]","EC50 [3, 14] [nM]","EC50 [4, 15] [nM]","EC50 [5, 16] [nM]","EC50 [6, 17] [nM]",EC50 [7] [nM],IC50 (HIV-1 integrase; [18]) [nM],CC50 (in vitro; Table 6) [µM],"EC50 [1, 19] [nM]",EC50 [8] [nM],EC50 [9] [nM],EC50 [10] [nM],other results
"Nc1c(C(=O)NCc2ccc(F)cc2F)c(=O)n(O)c2ncc(CCS(=O)(=O)c3ccccc3)cc12 [XZ446, 4-Amino-N-(2,4-difluorobenzyl)-1-hydroxy-2-oxo-6-(2-(phenylsulfonyl)ethyl)-1,2-dihydro-1,8-naphthyridine-3-carboxamide]",> 250,2 ± 0.1,5.2,2.1,0.6,11.4,5.3,1.2,–,–,–,–,–,–,"IC50 (HIV-1 integrase; Table 10, strand transfer, read-out: IC50 (nM, ST)): 3.7 ± 1.3 nM"
"Nc1c(C(=O)NCc2ccc(F)cc2F)c(=O)n(O)c2ncccc12 [XZ384, 4-Amino-N-(2,4-difluorobenzyl)-1-hydroxy-2-oxo-1,2-dihydro-1,8-naphthyridine-3-carboxamide]",> 250,–,–,–,–,16.1,6.4,3,19 ± 2,> 250,1.1 ± 0.66,0.6,1,3.2,"IC50 (HIV-1 integrase; Table 7, 3′-processing, read-out: IC50 (μM) 3′-P): 2500 ± 300 nM; CC50 (in vitro; Table 3): > 250 µM; EC50 ([1]; Human immunodeficiency virus 1, read-out: EC50 (nM), Table 9, WT, normal 5% serum): 1.1 ± 0.66 nM; EC50 [5, 20]: 16.1 ± 4.6 nM; EC50 [6, 21]: 6.4 ± 2.3 nM; EC50 (HIV-1 WT IN; Human immunodeficiency virus 1, read-out: EC50 (nM), Table 9, 10% FBS): 0.8 ± 0.3 nM; EC50 (HIV-1 WT IN; Human immunodeficiency virus 1, read-out: EC50 (nM), Table 9, 15% FBS): 0.5 ± 0.05 nM"
"COc1cc2c(cc1Cc1cccc(Cl)c1F)c(=O)c(C(=O)O)cn2[C@H](CO)C(C)C [EVG, elvitegravir, reference compound]",> 250,6.4 ± 0.8,5700,90,7.9,21,10,154,–,–,–,66.2,4.5,52.6,–
"O=C(NCc1ccc(F)cc1F)c1c(NCCCCc2ccccc2)c2cccnc2n(O)c1=O [XZ383, N-(2,4-difluorobenzyl)-1-hydroxy-2-oxo-4-((4-phenylbutyl)amino)-1,2-dihydro-1,8-naphthyridine-3-carboxamide]",–,–,–,–,–,–,–,–,280 ± 110,–,49.9 ± 13,–,–,–,"IC50 (HIV-1 integrase; [22]): 12200 ± 2000 nM; CC50 [11]: 102 ± 8 µM; Si (selectivity index) ([1]; Table 3): 2,040; EC50 [2, 23]: 243 ± 38.7 nM; EC50 [3, 24]: 116 ± 21.9 nM; EC50 [4, 25]: 39.9 ± 14.7 nM"
"CC(=O)OCCCCCc1cnc2c(c1)c(NCCO)c(C(=O)NCc1ccc(F)cc1F)c(=O)n2O [XZ439, 5-(6-((2,4-Difluorobenzyl)carbamoyl)-8-hydroxy-5-((2-hydroxyethyl)amino)-7-oxo-7,8-dihydro-1,8-naphthyridin-3-yl)pentyl acetate]",> 250,5.3,5.3,10.3,4.1 ± 1,14.5,3.6,3.8,–,–,–,1.2,7.4,15.2,–
"O=C(NCc1ccc(F)cc1F)c1c(NCCO)c2cccnc2n(O)c1=O [XZ378, N-(2,4-difluorobenzyl)-1-hydroxy-4-((2-hydroxyethyl)amino)-2-oxo-1,2-dihydro-1,8-naphthyridine-3-carboxamide]",–,–,–,–,–,–,–,–,10 ± 9,23.5 ± 3,5.2 ± 0.6,–,–,–,"IC50 (HIV-1 integrase; [22]): 550 ± 70 nM; CC50 (in vitro; Table 3): 23.5 ± 3 µM; Si (selectivity index) ([1]; Table 3): 4,519; EC50 [2, 23]: 43.1 ± 15.3 nM; EC50 [3, 24]: 24.6 ± 3.8 nM; EC50 [4, 25]: 4.6 ± 1.8 nM; EC50 [5, 20]: 27.3 ± 1.4 nM; EC50 [6, 21]: 26 nM"
"Cc1nnc(C(=O)NC(C)(C)c2nc(C(=O)NCc3ccc(F)cc3)c(O)c(=O)n2C)o1 [RAL, raltegravir, reference compound]",> 250,–,–,–,–,35.5,5.7,29.8,–,> 100,–,2.8,3.4,6 ± 2.3,"CC50 (in vitro; Table 2): > 100 µM; EC50 ([1]; Human immunodeficiency virus 1, Table 6, WT IN, read-out: EC50 (nM, WT)): 4 ± 2 nM"
